Assay results as given in patent publication US20230113609A1, “SSTR5 ANTAGONISTS” (Kallyope, Inc., priority 2019, published 2023).

These compounds were tested against T1, human SSTR5 (Homo sapiens, UniProt P35346) (assay: Inositol phosphate accumulation assay (IP1 HTRF, antagonist mode)). Settings: CHO-K1 cells co-expressing human SSTR5 with Gqi5, SST28 agonist at concentration generating 90% of full activation.
T1 construct: expressed in transfected cells
T1 sequence (P35346 whole entry): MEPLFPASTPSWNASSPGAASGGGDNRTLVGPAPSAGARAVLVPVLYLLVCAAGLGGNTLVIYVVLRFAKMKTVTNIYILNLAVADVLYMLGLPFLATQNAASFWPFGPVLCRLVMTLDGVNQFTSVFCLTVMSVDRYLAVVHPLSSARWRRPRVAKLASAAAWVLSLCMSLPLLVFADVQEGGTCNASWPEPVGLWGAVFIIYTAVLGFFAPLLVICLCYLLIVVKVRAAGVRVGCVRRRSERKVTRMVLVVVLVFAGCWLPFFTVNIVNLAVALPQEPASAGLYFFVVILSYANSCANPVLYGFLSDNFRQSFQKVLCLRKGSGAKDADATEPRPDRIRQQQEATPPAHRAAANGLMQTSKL
Format: cell-based
Excerpt: CHO-K1 cells stably co-expressing human SSTR5 with Gqi5 were developed using Jump-In technology from Thermo-Fisher. Gqi5 is the mouse G alpha q protein, that was modified to interact with Gi-coupled GPCRs as described previously (Coward, P.; Chan, S. D.; Wada, H. G.; Humphries, G. M.; Conklin, B. R. Chimeric G proteins Allow a High-Throughput Signaling Assay of Gi-Coupled Receptors. Anal Biochem. 1999, 270(2),242-248).
Co-expression of Gqi5 with SSTR5 allowed monitoring of SSTR5 activity by following IP1 accumulation. The assay was performed in a 384-well plate format using the IP1 assay kit from Cis-Bio in an antagonist mode, i.e., pre-incubation with antagonist following by receptor activation by agonist at a concentration generating 90% of full activation. Frozen cells expressing human SSTR5 were thawed, washed, and then plated in DMEM supplemented with 10% FBS and non-essential amino acids. 40 μL of 2.5×10^5 cells/mL were plated on a Poly D-Lysine coated 384-well white plate. The cells were then incubated for 16 hr. at 37° C/5% CO2. After 16 hour the medium was removed, and 10 μL of stimulation buffer was added to the cells. Test compounds were dissolved in DMSO at concentrations 2000-fold that of the final assay concentrations. 7.5 nLcompound solutions were transferred to the cell plates using a Labcyte Echo® acoustic liquid handler. The plates were then incubated for 15 minutes at 37° C/5%CO2. After the first incubation, 5 μL of 30 nM SST28 were added to the cells, and the cells were incubated for 90 minutes at 37° C/5%CO2. 5 μL of detection buffer (prepared as described in the IP-1 kit) was added to each well, and the plates were incubated at RT for 1 hour.
TR-FRET was measured using a ClarioSTAR plate reader, calculating the ratio between emissions at 665 nm and 620 nm (HTRF ratio). The HTRF ratio for positive (Max) and negative (Min) controls were used to normalize HTRF data and generate values for % inhibition. IC50 and maximal inhibition values were determined using a standard 4-parameter fit.
In the case of `CCOc1cc(-c2ccc(F)cc2)c(C2CC2)cc1CN1CCC2(CC1)CN(c1ccc(C(=O)NCCOCCO)cc1)C(=O)N2` [compound 65, 4-(8-((2-cyclopropyl-5-ethoxy-4′-fluoro-[1,1′-biphenyl]-4-yl)methyl)-2-oxo-1,3,8-triazaspiro[4.5]decan-3-yl)-N-(2-(2-hydroxyethoxy)ethyl)benzamide], the IC50 is reported as ≤ 0.1 µM.
In the case of `CCOc1cc(CN2CCC3(CC2)CN(c2ccc(C(=O)NCCCCS(=O)(=O)O)cc2)C(=O)O3)cc(OCC)c1-c1ccc(F)cc1` [Example 10, 4-(4-(8-((2,6-diethoxy-4′-fluoro-[1,1′-biphenyl]-4-yl)methyl)-2-oxo-1-oxa-3,8-diazaspiro[4.5]decan-3-yl)benzamido)butane-1-sulfonic acid], the IC50 is reported as ≤ 0.1 µM.
Work on `CCOc1cc(C(=O)OC)c(C2CC2)cc1CN1CCC2(CC1)CC(=O)N(c1ccc(C(=O)NCCS(N)(=O)=O)cc1)C2` [Example 50, methyl 2-cyclopropyl-5-ethoxy-4-((3-oxo-2-(4-((2-sulfamoylethyl)carbamoyl)phenyl)-2,8-diazaspiro[4.5]decan-8-yl)methyl)benzoate] yielded an IC50 of 0.1 to 1 µM.
With `CCOc1cc(C(=O)OC)c(C2CC2)cc1CN1CCC2(CC1)CC(=O)N(c1ccc(C(=O)NCCCN)cc1)C2` [Example 46, methyl 4-((2-(4-((3-aminopropyl)carbamoyl)phenyl)-3-oxo-2,8-diazaspiro[4.5]decan-8-yl)methyl)-2-cyclopropyl-5-ethoxybenzoate] the IC50 was > 5 µM.
For `CCOc1cc(C(=O)OC)c(C2CC2)cc1CN1CCC2(CC1)CC(=O)N(c1ccc(C(=O)N(C)CCCC(=O)O)cc1)C2` [Example 41, 4-(4-(8-(5-cyclopropyl-2-ethoxy-4-(methoxycarbonyl)benzyl)-3-oxo-2,8-diazaspiro[4.5]decan-2-yl)-N-methylbenzamido)butanoic acid], the IC50 was > 5 µM.
With `CCOc1cc(CN2CCC3(CC2)CN(c2ccc(C(=O)NCCCC(=O)NCCO)cc2)C(=O)O3)cc(OCC)c1-c1ccc(F)cc1` [compound 1, 4-(8-((2,6-diethoxy-4′-fluoro-[1,1′-biphenyl]-4-yl)methyl)-2-oxo-1-oxa-3,8-diazaspiro [4.5]decan-3-yl)-N-(4-((2-hydroxyethyl)amino)-4-oxobutyl)benzamide] the IC50 was 0.1 to 1 µM.
Work on `CCOc1cc(C(=O)OC)c(C2CC2)cc1CN1CCC2(CC1)CC(=O)N(c1ccc(C(=O)NCCCCS(N)(=O)=O)cc1)C2` [Example 51, methyl 2-cyclopropyl-5-ethoxy-4-((3-oxo-2-(4-((4-sulfamoylbutyl)carbamoyl)phenyl)-2,8-diazaspiro[4.5]decan-8-yl)methyl)benzoate] yielded an IC50 of 0.1 to 1 µM.
With `CCOc1cc(-c2ccc(F)cn2)c(C2CC2)cc1CN1CCC2(CC1)CN([C@H]1CC[C@](C)(C(=O)NCCCS(=O)(=O)O)CC1)C(=O)O2` [compound 91] the IC50 was ≤ 0.1 µM.
`CCOc1cc(C(=O)OC)c(C2CC2)cc1CN1CCC2(CC1)CC(=O)N(c1ccc(C(=O)NCCOCC[N+]34CCN(CC3)CC4)cc1)C2` [Example 45, 1-(2-(2-(4-(8-(5-cyclopropyl-2-ethoxy-4-(methoxycarbonyl)benzyl)-3-oxo-2,8-diazaspiro[4.5]decan-2-yl)benzamido)ethoxy)ethyl)-1,4-diazabicyclo[2.2.2]octan-1-ium] was tested, and the IC50 was > 5 µM.
For `CCOc1cc(C(=O)OC)c(C2CC2)cc1CN1CCC2(CC1)CC(=O)N(c1ccc(C(=O)NCCCCS(=O)(=O)O)cc1)C2` [Example 31, 4-(4-(8-(5-cyclopropyl-2-ethoxy-4-(methoxycarbonyl)benzyl)-3-oxo-2,8-diazaspiro[4.5]decan-2-yl)benzamido)butane-1-sulfonic acid], the IC50 was > 5 µM.
In the case of `CCOc1cc(C(=O)OC)c(C2CC2)cc1CN1CCC2(CC1)CC(=O)N(c1ccc(C(=O)NCCS(=O)(=O)O)cc1)C2` [Example 29, 2-(4-(8-(5-cyclopropyl-2-ethoxy-4-(methoxycarbonyl)benzyl)-3-oxo-2,8-diazaspiro[4.5]decan-2-yl)benzamido)ethane-1-sulfonic acid], the IC50 is reported as 0.1 to 1 µM.
Compound `CCOc1cc(C(=O)OC)c(C2CC2)cc1CN1CCC2(CC1)CC(=O)N(c1ccc(C(=O)NC[C@@H](O)CO)cc1)C2` [Example 36, methyl (R)-2-cyclopropyl-4-((2-(4-((2,3-dihydroxypropyl)carbamoyl)phenyl)-3-oxo-2,8-diazaspiro[4.5]decan-8-yl)methyl)-5-ethoxybenzoate] has an IC50 of 0.1 to 1 µM.
Work on `CCOc1cc(CN2CCC3(CC2)CN(c2ccc(C(=O)NCCC[N+](C)(C)C)cc2)C(=O)O3)cc(OCC)c1-c1ccc(F)cc1` [Example 6, 3-(4-(8-((2,6-diethoxy-4′-fluoro-[1,1′-biphenyl]-4-yl)methyl)-2-oxo-1-oxa-3,8-diazaspiro[4.5]decan-3-yl)benzamido)-N,N,N-trimethylpropan-1-aminium] yielded an IC50 of 0.1 to 1 µM.
With `CCOc1cc(C(=O)OC)c(C2CC2)cc1CN1CCC2(CC1)CC(=O)N(c1ccc(C(=O)NCCCS(=O)(=O)O)cc1)C2` [Example 30, 3-(4-(8-(5-cyclopropyl-2-ethoxy-4-(methoxycarbonyl)benzyl)-3-oxo-2,8-diazaspiro[4.5]decan-2-yl)benzamido)propane-1-sulfonic acid] the IC50 was > 5 µM.
With `CCOc1cc(C(=O)OC)c(C2CC2)cc1CN1CCC2(CC1)CC(=O)N(c1ccc(C(=O)NCCNC(=O)NCCO)cc1)C2` [compound 13, Methyl 2-cyclopropyl-5-ethoxy-4-[[2-[4-[2-(2-hydroxyethylcarbamoylamino)ethylcarbamoyl]phenyl]-3-oxo-2,8-diazaspiro[4.5]decan-8-yl]methyl]benzoate] the IC50 was > 5 µM.
In the case of `CCOc1cc(CN2CCC3(CC2)CN(c2ccc(C(=O)NC[C@H](O)[C@@H](O)[C@H](O)[C@H](O)CO)cc2)C(=O)O3)cc(CO)c1-c1ccc(F)cc1` [Example 3, 4-(8-((2-ethoxy-4′-fluoro-6-(hydroxymethyl)-[1,1′-biphenyl]-4-yl)methyl)-2-oxo-1-oxa-3,8-diazaspiro[4.5]decan-3-yl)-N-((2S,3R,4R,5R)-2,3,4,5,6-pentahydroxyhexyl)benzamide], the IC50 is reported as > 5 µM.
For `CCOc1cc(C(=O)OC)c(C2CC2)cc1CN1CCC2(CC1)CC(=O)N(c1ccc(C(=O)NCCNC(N)=O)cc1)C2` [Example 38, methyl 2-cyclopropyl-5-ethoxy-4-((3-oxo-2-(4-((2-ureidoethyl)carbamoyl)phenyl)-2,8-diazaspiro[4.5]decan-8-yl)methyl)benzoate], the IC50 was 0.1 to 1 µM.
With `CCOc1cc(C(=O)OC)c(C2CC2)cc1CN1CCC2(CC1)CC(=O)N(c1ccc(CC(=O)NCCNC(=O)NC(CO)(CO)CO)cc1)C2` [Example 14, methyl 2-cyclopropyl-4-((2-(4-(2-((2-(3-(1,3-dihydroxy-2-(hydroxymethyl)propan-2-yl)ureido)ethyl)amino)-2-oxoethyl)phenyl)-3-oxo-2,8-diazaspiro[4.5]decan-8-yl)methyl)-5-ethoxy benzoate] the IC50 was > 5 µM.
With `CCOc1cc(-c2ccc(F)cc2)c(C2CC2)cc1CN1CCC2(CC1)CN(c1ccc(C(=O)NCCCS(N)(=O)=O)cc1)C(=O)O2` [Example 64, 4-(8-((2-cyclopropyl-5-ethoxy-4′-fluoro-[1,1′-biphenyl]-4-yl)methyl)-2-oxo-1-oxa-3,8-diazaspiro[4.5]decan-3-yl)-N-(3-sulfamoylpropyl)benzamide] the IC50 was ≤ 0.1 µM.
